Reference: ChEMBL document CHEMBL3046649, “Fungitoxic and Phytotoxic Activities of Cinnamic Acid Esters and Amides” (2000)

Key:
Pythium [1] = experiment: microbe, parasite or virus in culture; type: functional; conditions: read-out: GI
Description: Fungitoxic activity against Pythium sp. assessed as mycelial growth inhibition at 100 ppm after 4 to 5 days by agar dilution method

Pythium [2] = experiment: Fungitoxic activity against Pythium sp. assessed as mycelial growth inhibition at 10 ppm after 4 to 5 days by agar dilution method; conditions: read-out: GI
[3] = system: Brassica rapa subsp. chinensis; experiment: whole plant or invertebrate; type: functional; conditions: 72 h, read-out: GI
Description: Phytotoxicity against Brassica rapa subsp. chinensis assessed as growth inhibition of hypocotyl at 100 ppm treated to seeds after 3 days

Athelia rolfsii [4] = experiment: microbe, parasite or virus in culture; type: functional; conditions: Agroathelia rolfsii, read-out: GI
Description: Fungitoxic activity against Athelia rolfsii assessed as mycelial growth inhibition at 100 ppm after 4 to 5 days by agar dilution method

Athelia rolfsii [5] = experiment: Fungitoxic activity against Athelia rolfsii assessed as mycelial growth inhibition at 10 ppm after 4 to 5 days by agar dilution method; type: functional; conditions: Agroathelia rolfsii; read-out: GI
[6] = system: Brassica rapa subsp. chinensis; experiment: whole plant or invertebrate; type: functional; conditions: 72 h, read-out: GI; remark: listed apart in the source
Description: Phytotoxicity against Brassica rapa subsp. chinensis assessed as growth inhibition of radicle at 100 ppm treated to seeds after 3 days

CCOC(=O)/C=C/c1ccc(Cl)cc1 [ETHYL 3-(4-CHLOROPHENYL)ACRYLATE] was tested, and the inhibition of growth at 100 ppm (Pythium [1]) was 99%, the inhibition of growth at 10 ppm (Pythium [2]) was 8% and the inhibition of growth at 100 ppm [3] was 43%. It also gave an inhibition of growth at 100 ppm (Athelia rolfsii [4]) of 97%, an inhibition of growth at 10 ppm (Athelia rolfsii [5]) of 19% and an inhibition of growth at 100 ppm [6] of 47%.

CCCCNC(=O)/C=C/c1ccccc1 [N-BUTYLCINNAMAMIDE] showed an inhibition of growth at 100 ppm (Pythium [1]) of 84%, an inhibition of growth at 10 ppm (Pythium [2]) of 33% and an inhibition of growth at 100 ppm [3] of 50%. It also gave an inhibition of growth at 100 ppm (Athelia rolfsii [4]) of 94%, an inhibition of growth at 10 ppm (Athelia rolfsii [5]) of 45% and an inhibition of growth at 100 ppm [6] of 71%.

For O=C(/C=C/c1ccc(Cl)cc1)OCCOc1ccccc1, the inhibition of growth at 100 ppm (Pythium [1]) was 54%, the inhibition of growth at 10 ppm (Pythium [2]) was 9% and the inhibition of growth at 100 ppm [3] was 30%. For the same compound, the inhibition of growth at 100 ppm (Athelia rolfsii [4]) was 83%, the inhibition of growth at 10 ppm (Athelia rolfsii [5]) was 16% and the inhibition of growth at 100 ppm [6] was 0%.

In the case of C=CCNC(=O)/C=C/c1ccccc1, the inhibition of growth at 100 ppm (Pythium [1]) is reported as 52%, the inhibition of growth at 10 ppm (Pythium [2]) is reported as 20% and the inhibition of growth at 100 ppm [3] is reported as 63%. It also gave an inhibition of growth at 100 ppm (Athelia rolfsii [4]) of 90%, an inhibition of growth at 10 ppm (Athelia rolfsii [5]) of 6% and an inhibition of growth at 100 ppm [6] of 64%.

With CC(C)(C)NC(=O)/C=C/c1ccccc1 [N-TERT-BUTYLCINNAMAMIDE] the inhibition of growth at 100 ppm (Pythium [1]) was 71%, the inhibition of growth at 10 ppm (Pythium [2]) was 14% and the inhibition of growth at 100 ppm [3] was 34%. The inhibition of growth at 100 ppm (Athelia rolfsii [4]) was 92%, the inhibition of growth at 10 ppm (Athelia rolfsii [5]) was 26% and the inhibition of growth at 100 ppm [6] was 73%.

O=C(/C=C/c1ccc(Cl)cc1)OCCc1ccccc1 [PHENETHYL 3-(4-CHLOROPHENYL)ACRYLATE] gave an inhibition of growth at 100 ppm (Pythium [1]) of 60%, an inhibition of growth at 10 ppm (Pythium [2]) of 13% and an inhibition of growth at 100 ppm [3] of 36%. For the same compound, the inhibition of growth at 100 ppm (Athelia rolfsii [4]) was 84%, the inhibition of growth at 10 ppm (Athelia rolfsii [5]) was 9% and the inhibition of growth at 100 ppm [6] was 31%.

With O=C(/C=C/c1ccc(Cl)cc1Cl)OCCOc1ccccc1 the inhibition of growth at 100 ppm (Pythium [1]) was 59%, the inhibition of growth at 10 ppm (Pythium [2]) was 14% and the inhibition of growth at 100 ppm [3] was 33%. For the same compound, the inhibition of growth at 100 ppm (Athelia rolfsii [4]) was 72%, the inhibition of growth at 10 ppm (Athelia rolfsii [5]) was 14% and the inhibition of growth at 100 ppm [6] was 8%.

CCOC(=O)/C=C/c1ccc(Cl)cc1Cl [ETHYL 3-(2,4-DICHLOROPHENYL)ACRYLATE] showed an inhibition of growth at 100 ppm (Pythium [1]) of 76%, an inhibition of growth at 10 ppm (Pythium [2]) of 19% and an inhibition of growth at 100 ppm [3] of 54%. For the same compound, the inhibition of growth at 100 ppm (Athelia rolfsii [4]) was 93%, the inhibition of growth at 10 ppm (Athelia rolfsii [5]) was 32% and the inhibition of growth at 100 ppm [6] was 29%.

In the case of Cc1cccc(NC(=O)/C=C/c2ccccc2)c1 [N-M-TOLYLCINNAMAMIDE], the inhibition of growth at 100 ppm (Pythium [1]) is reported as 85%, the inhibition of growth at 10 ppm (Pythium [2]) is reported as 52% and the inhibition of growth at 100 ppm [3] is reported as 13%. For the same compound, the inhibition of growth at 100 ppm (Athelia rolfsii [4]) was 83%, the inhibition of growth at 10 ppm (Athelia rolfsii [5]) was 34% and the inhibition of growth at 100 ppm [6] was 59%.

CCCCCNC(=O)/C=C/c1ccccc1 was tested, and the inhibition of growth at 100 ppm (Pythium [1]) was 78%, the inhibition of growth at 10 ppm (Pythium [2]) was 23% and the inhibition of growth at 100 ppm [3] was 60%. It also gave an inhibition of growth at 100 ppm (Athelia rolfsii [4]) of 87%, an inhibition of growth at 10 ppm (Athelia rolfsii [5]) of 18% and an inhibition of growth at 100 ppm [6] of 76%.

CC(C)NC(=O)/C=C/c1ccccc1 [N-ISOPROPYLCINNAMAMIDE] showed an inhibition of growth at 100 ppm (Pythium [1]) of 47%, an inhibition of growth at 10 ppm (Pythium [2]) of 0% and an inhibition of growth at 100 ppm [3] of 39%. The inhibition of growth at 100 ppm (Athelia rolfsii [4]) was 96%, the inhibition of growth at 10 ppm (Athelia rolfsii [5]) was 17% and the inhibition of growth at 100 ppm [6] was 76%.

CCCCCOC(=O)/C=C/c1ccc(Cl)cc1Cl [PENTYL 3-(2,4-DICHLOROPHENYL)ACRYLATE] showed an inhibition of growth at 100 ppm (Pythium [1]) of 43%, an inhibition of growth at 10 ppm (Pythium [2]) of 9% and an inhibition of growth at 100 ppm [3] of 22%. The inhibition of growth at 100 ppm (Athelia rolfsii [4]) was 75%, the inhibition of growth at 10 ppm (Athelia rolfsii [5]) was 14% and the inhibition of growth at 100 ppm [6] was 0%.

In the case of COC(=O)/C=C/c1ccc(Cl)cc1 [METHYL 3-(4-CHLOROPHENYL)ACRYLATE], the inhibition of growth at 100 ppm (Pythium [1]) is reported as 99%, the inhibition of growth at 10 ppm (Pythium [2]) is reported as 19% and the inhibition of growth at 100 ppm [3] is reported as 84%. It also gave an inhibition of growth at 100 ppm (Athelia rolfsii [4]) of 94%, an inhibition of growth at 10 ppm (Athelia rolfsii [5]) of 52% and an inhibition of growth at 100 ppm [6] of 93%.

In the case of CCCNC(=O)/C=C/c1ccccc1 [N-PROPYLCINNAMAMIDE], the inhibition of growth at 100 ppm (Pythium [1]) is reported as 54%, the inhibition of growth at 10 ppm (Pythium [2]) is reported as 17% and the inhibition of growth at 100 ppm [3] is reported as 15%. It also gave an inhibition of growth at 100 ppm (Athelia rolfsii [4]) of 89%, an inhibition of growth at 10 ppm (Athelia rolfsii [5]) of 26% and an inhibition of growth at 100 ppm [6] of 63%.

For CC(C)CNC(=O)/C=C/c1ccc(C(C)C)cc1 [N-ISOBUTYL-3-(4-ISOPROPYLPHENYL)ACRYLAMIDE], the inhibition of growth at 100 ppm (Pythium [1]) was 58%, the inhibition of growth at 10 ppm (Pythium [2]) was 42% and the inhibition of growth at 100 ppm [3] was 34%. It also gave an inhibition of growth at 100 ppm (Athelia rolfsii [4]) of 42%, an inhibition of growth at 10 ppm (Athelia rolfsii [5]) of 37% and an inhibition of growth at 100 ppm [6] of 45%.

CC(C)OC(=O)/C=C/c1ccc(C(C)C)cc1 [ISOPROPYL 3-(4-ISOPROPYLPHENYL)ACRYLATE] gave an inhibition of growth at 100 ppm (Pythium [1]) of 70%, an inhibition of growth at 10 ppm (Pythium [2]) of 21% and an inhibition of growth at 100 ppm [3] of 18%. It also gave an inhibition of growth at 100 ppm (Athelia rolfsii [4]) of 92%, an inhibition of growth at 10 ppm (Athelia rolfsii [5]) of 42% and an inhibition of growth at 100 ppm [6] of 0%.

Work on CC(C)c1ccc(/C=C/C(=O)OCCOc2ccccc2)cc1 yielded an inhibition of growth at 100 ppm (Pythium [1]) of 46%, an inhibition of growth at 10 ppm (Pythium [2]) of 3% and an inhibition of growth at 100 ppm [3] of 32%. The inhibition of growth at 100 ppm (Athelia rolfsii [4]) was 64%, the inhibition of growth at 10 ppm (Athelia rolfsii [5]) was 8% and the inhibition of growth at 100 ppm [6] was 0%.
